This is an account of results in ChEMBL document CHEMBL1201862, “PubChem BioAssay data set” (2004).

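Exposure lasted 48 hours, with cells grown in 96-well plates and compounds tested at five concentrations. The concentration for 50% growth inhibition is given as GI50.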 Activity calls are given as the source filed them. Rule as the data show it: active = GI50 up to about 1.1 µM and inactive = higher.

Among the test systems are A498; COLO 205; DLD-1; HCT-15; HT-29; IGROV-1; K562; M19-MEL; NCI-H522; OVCAR-4; RPMI-8226; SF-539; SK-MEL-2; SK-MEL-5; SK-OV-3; SNB-19; OVCAR-3.
Common to all, as to experiment: NCI anticancer screen, dose series, 48 h

Consider `O=C(Nc1ccc(C(F)(F)F)cc1[N+](=O)[O-])C(=O)Nn1c(S)nc2ccccc2c1=O`, for which the GI50 with A498 is > 100 µM (inactive); in the test on COLO 205, > 100 µM (inactive); with DLD-1, > 100 µM (inactive); in the test on HCT-15, more than 100 µM; in the test on HT-29, > 100 µM (inactive); in the test on IGROV-1 it was > 100 µM (inactive). Moreover, the GI50 with K562, in the test on M19-MEL, in the test on NCI-H522, with OVCAR-4, in the test on RPMI-8226 and in the test with SF-539 was > 100 µM (inactive) in each case. Further, the GI50 in the test on SK-MEL-2, in the test on SK-MEL-5, with SK-OV-3 and with SNB-19 was > 100 µM (inactive) in each case.
For the compound `Cc1nc(-c2cccnc2)sc1C(=O)/C=C/c1cccc([N+](=O)[O-])c1`, the GI50 with A498 is > 100 µM (inactive); in the test on COLO 205 it was > 100 µM (inactive); in the test on DLD-1, > 100 µM (inactive); in the test on HCT-15, more than 100 µM; with HT-29 it was > 100 µM (inactive); in the test on IGROV-1 it was > 100 µM (inactive). Moreover, the GI50 with K562, in the test on M19-MEL, in the test on NCI-H522, in the test on OVCAR-3, in the test on RPMI-8226 and in the test with SF-539 was > 100 µM (inactive) each time. The GI50 with SK-MEL-2, with SK-MEL-5 and in the test on SK-OV-3 was > 100 µM (inactive) in each case.
For the compound `O=C1C(c2ccccc2)=[N+]([O-])c2cc([N+](=O)[O-])ccc21`, the GI50 was 27.6 µM (inactive) in the test on A498; 21.5 µM (inactive) with COLO 205; 21.6 µM (inactive) with DLD-1; 21.4 µM in the test with HCT-15; 21.9 µM (inactive) with HT-29; 22.4 µM (inactive) in the test with IGROV-1. In addition, the GI50 with K562 was 22.8 µM (inactive); in the test with M19-MEL it was 17.7 µM (inactive); with NCI-H522, 15.3 µM (inactive); with OVCAR-3, 18.2 µM (inactive); in the test with RPMI-8226 it was 22.8 µM (inactive); with SF-539, 25.5 µM (inactive). Besides, the GI50 was > 100 µM (inactive) in the test on SK-MEL-2, 19.3 µM (inactive) with SK-MEL-5, > 100 µM (inactive) in the test with SK-OV-3 and 57 µM (inactive) in the test with SNB-19.
Consider `Nc1nc(SCCC/C=C/B(O)O)nc2c1ncn2C1OC(CO)C(O)C1O` (stereo unspecified), for which the GI50 was > 243 µM (inactive) in the test on A498; > 243 µM (inactive) in the test on COLO 205; > 243 µM (inactive) in the test on DLD-1; more than 243 µM with HCT-15; > 243 µM (inactive) in the test with HT-29; > 243 µM (inactive) in the test with IGROV-1. Besides, the GI50 in the test with K562, with M19-MEL, in the test with NCI-H522, in the test with OVCAR-3, in the test on OVCAR-4 and in the test on SF-539 was > 243 µM (inactive) in each case. In addition, the GI50 in the test with SK-MEL-2, with SK-MEL-5, in the test on SK-OV-3 and with SNB-19 was > 243 µM (inactive) in each case.
In the case of `O=S1(=O)OCCOS(=O)(=O)C1Cl`, the GI50 with A498, with COLO 205, in the test on DLD-1, with HT-29, in the test with IGROV-1 and in the test on K562 was > 100 µM (inactive) each time. In addition, the GI50 with M19-MEL, in the test with NCI-H522, in the test on OVCAR-3, in the test with OVCAR-4, in the test on RPMI-8226 and with SF-539 was > 100 µM (inactive) in each case. The GI50 in the test on SK-MEL-2, in the test with SK-MEL-5, with SK-OV-3 and in the test on SNB-19 was > 100 µM (inactive) in each case.
Regarding `O=C(N/N=C(\c1nc2ccc(Cl)cc2nc1O)C(O)c1ccccc1Cl)c1ccncc1` (stereo unspecified), the GI50 in the test on A498 was > 100 µM (inactive); in the test on COLO 205, > 100 µM (inactive); in the test on DLD-1 it was > 100 µM (inactive); in the test on HCT-15, more than 100 µM; in the test on HT-29 it was > 100 µM (inactive); with IGROV-1 it was > 100 µM (inactive). For the same compound, the GI50 in the test on K562, in the test with M19-MEL, in the test with NCI-H522, with OVCAR-3, in the test with OVCAR-4 and in the test on SF-539 was > 100 µM (inactive) throughout. In addition, the GI50 in the test on SK-MEL-2, in the test on SK-MEL-5, in the test with SK-OV-3 and with SNB-19 was > 100 µM (inactive) in each case.
`COc1ccc(/C(=N/O)C(c2ccc(OC)cc2)C2C(=O)Oc3ccccc32)cc1` (stereo unspecified): the GI50 in the test with A498 was > 100 µM (inactive); with COLO 205, 1.66 µM (inactive); in the test on DLD-1, 83.4 µM (inactive); with HCT-15 it was 71.6 µM; in the test with HT-29, > 100 µM (inactive); in the test on IGROV-1, 40 µM (inactive). Also, the GI50 was 71.4 µM (inactive) with K562; 68.5 µM (inactive) with M19-MEL; 35.6 µM (inactive) with NCI-H522; 48.6 µM (inactive) in the test with OVCAR-4; > 100 µM (inactive) in the test with RPMI-8226; > 100 µM (inactive) with SF-539. For the same compound, the figures for the GI50 in the test with SK-MEL-2, in the test with SK-MEL-5 and in the test on SK-OV-3 were 38.5 µM (inactive), 24.8 µM (inactive) and > 100 µM (inactive), respectively.
With `CN(C)CC1(C)CC/C(=C\c2ccc(Cl)cc2)C1=O` (stereo unspecified), the GI50 in the test with A498 is 49.1 µM (inactive); in the test with COLO 205, 17.4 µM (inactive); with DLD-1 it was 29.2 µM (inactive); in the test on HCT-15 it was 34.4 µM; in the test on HT-29 it was 44.2 µM (inactive); in the test with IGROV-1, 74 µM (inactive). The GI50 in the test with K562 is 40.6 µM (inactive); with M19-MEL, 50.8 µM (inactive); with NCI-H522, 17.7 µM (inactive); with OVCAR-3, 34.7 µM (inactive); in the test on OVCAR-4, 35.2 µM (inactive); with RPMI-8226, 19.1 µM (inactive). Also, the GI50 in the test with SF-539 is 46.5 µM (inactive); with SK-MEL-2, > 100 µM (inactive); with SK-MEL-5, 39 µM (inactive); in the test with SNB-19, 20.3 µM (inactive).
For `COC(=O)C(C#N)C1NC(=O)c2ccccc21` (stereo unspecified), the GI50 is > 100 µM (inactive) with A498; > 100 µM (inactive) in the test with COLO 205; > 100 µM (inactive) with DLD-1; more than 100 µM in the test with HCT-15; > 100 µM (inactive) in the test with HT-29; > 100 µM (inactive) in the test on IGROV-1. The GI50 in the test with K562, with M19-MEL, with NCI-H522, with OVCAR-3, with OVCAR-4 and in the test on RPMI-8226 was > 100 µM (inactive) in each case. The GI50 in the test on SF-539, in the test with SK-MEL-5, in the test on SK-OV-3 and with SNB-19 was > 100 µM (inactive) in each case.
As to `CCCC/C(C)=N/NC(N)=S`, the GI50 in the test with A498 was > 100 µM (inactive); with COLO 205, > 100 µM (inactive); in the test with DLD-1, > 100 µM (inactive); in the test with HCT-15, more than 100 µM; in the test on HT-29, > 100 µM (inactive); in the test with IGROV-1 it was > 100 µM (inactive). Further, the GI50 with K562, with M19-MEL, in the test on NCI-H522, in the test with OVCAR-3, in the test on RPMI-8226 and with SF-539 was > 100 µM (inactive) throughout. Also, the GI50 in the test with SK-MEL-2, with SK-MEL-5, in the test on SK-OV-3 and with SNB-19 was > 100 µM (inactive) throughout.
With `Nc1n[n+](-c2ccccc2)no1`, the GI50 in the test on A498 is 46 µM (inactive); in the test with COLO 205 it was 45.3 µM (inactive); in the test on DLD-1 it was 5.7 µM (inactive); in the test on HCT-15 it was 28.1 µM; in the test on HT-29, 42.5 µM (inactive); in the test with IGROV-1, 24.4 µM (inactive). The GI50 with K562 was 4.85 µM (inactive); with M19-MEL, 46.2 µM (inactive); in the test on NCI-H522, 41.7 µM (inactive); in the test on OVCAR-3, 47.4 µM (inactive); in the test on OVCAR-4, > 100 µM (inactive); in the test with RPMI-8226, 26.6 µM (inactive). For the same compound, the GI50 is 51.4 µM (inactive) in the test with SF-539, 52.7 µM (inactive) in the test with SK-MEL-5, > 100 µM (inactive) with SK-OV-3 and > 100 µM (inactive) in the test with SNB-19.
Turning to `C=C1C(OC(C)=O)CC(OC(C)=O)C2(C)C(OC(C)=O)C(OC(C)=O)C3=C(C)C(OC(=O)/C=C/c4ccccc4)CC(C(OC(C)=O)C12)C3(C)C` (stereo unspecified), the GI50 is 61.1 µM (inactive) with A498; > 100 µM (inactive) in the test with COLO 205; > 100 µM (inactive) in the test with DLD-1; more than 100 µM in the test on HCT-15; > 100 µM (inactive) in the test with HT-29; > 100 µM (inactive) in the test with IGROV-1. The GI50 in the test on K562 was > 100 µM (inactive); in the test with M19-MEL, > 100 µM (inactive); with NCI-H522 it was 68.1 µM (inactive); in the test on OVCAR-4, 16.7 µM (inactive); in the test with RPMI-8226, > 100 µM (inactive); in the test with SF-539 it was 25.5 µM (inactive). Besides, the GI50 with SK-MEL-2 is 55.6 µM (inactive); with SK-MEL-5, > 100 µM (inactive); with SK-OV-3, 30.5 µM (inactive); in the test on SNB-19, 51.8 µM (inactive).
Consider `CN(C)Cc1cc(/C(=C(\C#N)c2ccccc2)c2ccc(O)cc2)ccc1O`, for which the GI50 with A498 was 32.2 µM (inactive); in the test with COLO 205, 14.5 µM (inactive); with DLD-1 it was 20.8 µM (inactive); in the test on HCT-15, 25.4 µM; in the test on HT-29 it was 15.4 µM (inactive); with IGROV-1 it was 30.5 µM (inactive). For the same compound, the GI50 with K562 was 20 µM (inactive); in the test with M19-MEL it was 16.9 µM (inactive); in the test with NCI-H522, 12.9 µM (inactive); with OVCAR-3, 18.7 µM (inactive); with OVCAR-4, 21.5 µM (inactive); with RPMI-8226 it was 20.2 µM (inactive). Besides, the GI50 with SK-MEL-2 is 17.3 µM (inactive); in the test with SK-MEL-5, 14.5 µM (inactive); in the test with SK-OV-3, 27 µM (inactive); in the test on SNB-19, 28.8 µM (inactive).
